The text below walks through data of patent publication US7932270B2 (Cytokinetics, Inc., priority 2006, dated 2011).

This experiment addresses T1, chicken gizzard smooth muscle myosin subfragment-1 chemically crosslinked to cardiac or skeletal actin (Gallus gallus, UniProt P10587).
T1 construct: chicken gizzard smooth muscle myosin subfragment-1; from tissue; host or cells: chicken gizzard
The experiment is described as follows: Smooth muscle myosin ATPase dose response assay (pyruvate kinase/horseradish peroxidase/pyruvate oxidase-coupled, amplex red fluorescence). The format is biochemical. The note with it: read-out: IC50 Arithmetic Mean. The protocol: In Vitro Model of Dose Dependent Smooth Muscle Myosin ATPase Modulation
Screening assays were performed using a pyruvate kinase and lactate dehydrogenase-coupled ATPase assay containing the following reagents: Potassium PIPES (50 mM), MgCl2 (3 mM), KCl (100 mM), ATP (0.15 mM), DTT (1 mM), BSA (0.1 mg/ml), NADH (0.5 mM), PEP (1.5 mM), pyruvate kinase (4 U/ml), lactate dehydrogenase (8 U/ml), and antifoam (50 ppm) (concentrations expressed are final assay concentrations). The pH was adjusted to 6.80 at 22° C. by addition of potassium hydroxide. Lead optimization assays were performed with a more sensitive pyruvate kinase/horseradish peroxidase/pyruvate oxidase-coupled ATPase assay containing the following reagents: Potassium PIPES (12 mM), MgCl2 (2 mM), KCl (100 mM), ATP (0.15 mM), BSA (0.05 mg/ml), potassium phosphate (2 mM), amplex red (0.1 mM), PEP (0.1 mM), pyruvate kinase (4 U/ml), horseradish peroxidase (0.5 U/ml), pyruvate oxidase (0.5 U/ml), and antifoam (50 ppm) (concentrations expressed are final assay concentrations). The pH was adjusted to 7.00 at 22° C. by addition of potassium hydroxide.
The protein components specific to this assay are chicken gizzard smooth muscle myosin subfragment-1 that has been chemically crosslinked to either cardiac or skeletal actin using an excess of 1-Ethyl-3-[3-dimethylaminopropyl]carbodiimide hydrochloride and N-hydroxysuccinimide. The exact concentration of the crosslinked smooth muscle myosin in the assay is determined empirically, by titration to achieve a desired rate of ATP hydrolysis. The concentration varies between protein preparations due to variations in the fraction of active molecules in each preparation.
Compound dose response assays are performed by first preparing a dilution series of test compound, each with an assay mixture containing potassium PIPES, MgCl2, KCl, ATP, BSA, potassium phosphate, amplex red, PEP, crosslinked smooth muscle actomyosin (subfragment-1), antifoam, and water. The assay is started by adding an equal volume of solution containing potassium Pipes, MgCl2, KCl, BSA, potassium phosphate, pyruvate kinase, horseradish peroxidase, pyruvate oxidase, antifoam, and water. ATP hydrolysis is monitored by measuring the fluorescence of amplex red (excitation at 480 nm, emission at 615 nm). The resulting dose response curve is fit by the 4 parameter equation y=Bottom+((Top-Bottom)/(1+((IC50/X)^Hill))). The IC50 is defined as the concentration at which ATPase activity is midway between the top and bottom of the dose response curve.

SMILES strings stand for the structures.

T1 sequence (P02607 2-151): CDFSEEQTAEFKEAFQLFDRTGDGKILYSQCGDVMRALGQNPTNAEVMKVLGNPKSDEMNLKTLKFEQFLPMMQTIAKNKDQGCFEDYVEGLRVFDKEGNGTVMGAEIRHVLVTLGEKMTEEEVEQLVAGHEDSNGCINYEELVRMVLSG
T1 sequence (P10587 84-789): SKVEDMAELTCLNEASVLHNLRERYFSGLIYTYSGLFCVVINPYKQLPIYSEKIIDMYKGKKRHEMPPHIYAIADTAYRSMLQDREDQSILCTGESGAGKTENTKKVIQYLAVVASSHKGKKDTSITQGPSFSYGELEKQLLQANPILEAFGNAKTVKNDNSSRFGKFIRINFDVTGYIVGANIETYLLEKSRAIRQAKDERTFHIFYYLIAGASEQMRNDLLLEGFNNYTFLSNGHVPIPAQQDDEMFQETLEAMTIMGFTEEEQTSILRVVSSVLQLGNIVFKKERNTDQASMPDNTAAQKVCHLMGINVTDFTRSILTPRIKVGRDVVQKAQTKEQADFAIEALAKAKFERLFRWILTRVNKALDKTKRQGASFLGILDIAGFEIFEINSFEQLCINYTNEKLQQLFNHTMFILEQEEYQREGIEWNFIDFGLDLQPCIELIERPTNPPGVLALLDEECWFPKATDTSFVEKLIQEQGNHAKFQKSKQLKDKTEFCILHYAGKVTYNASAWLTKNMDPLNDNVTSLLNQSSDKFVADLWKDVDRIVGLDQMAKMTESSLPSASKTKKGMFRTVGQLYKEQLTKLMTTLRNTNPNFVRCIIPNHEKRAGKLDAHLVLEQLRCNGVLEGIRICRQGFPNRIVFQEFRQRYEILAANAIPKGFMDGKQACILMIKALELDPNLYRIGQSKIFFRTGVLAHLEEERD

Consider `CC(C)(CNC(=O)c1ccc(-c2ccccc2C#N)nc1NCCc1cccc(F)c1)NC(=O)CNC(=O)OC(C)(C)C`, for which the IC50 was 9570 nM. The same measure for `CC(C)(CNC(=O)c1ccc(-c2ccccc2C#N)nc1NCCc1cccc(F)c1)NC(=O)CN`: 320 nM; for `CC(C)(CNC(=O)c1ccc(-c2ccccc2C#N)nc1NCCc1cccc(F)c1)NC(=O)CCCNC(=O)OC(C)(C)C`: 194 nM. For `CC(C)(CNC(=O)c1ccc(-c2ccccc2C#N)nc1NCCc1cccc(F)c1)NC(=O)CCCN`, the IC50 amounted to 277 nM. As to `N#Cc1ccccc1-c1ccc(C(=O)NCCCN2C(=O)CC[C@@H]2CN=[N+]=[N-])c(NCCc2cccc(F)c2)n1`, the IC50 came out at 5620 nM. As for `N#Cc1ccccc1-c1ccc(C(=O)NCCCN2C(=O)CC[C@H]2CN=[N+]=[N-])c(NCCc2cccc(F)c2)n1`, the IC50 was 16600 nM. The same measure for `CN(C)C(n1cc(-c2ccc(C(=O)NC[C@H]3CCC(=O)N3CCCN)c(NCCc3cccc(F)c3)n2)cn1)=[N+](C)C`: 2130 nM. Consider `N#Cc1ccccc1-c1ccc(C(=O)NCC2CCCN2CCCN)c(NCCc2cccc(F)c2)n1` (stereo not drawn), for which the IC50 came out at 3500 nM. The same measure for `C[C@@H](NC(=O)c1ccc(-c2ccccc2C#N)nc1NCCc1cccc(F)c1)C(N)=O`: 532 nM.

Turning to `C[C@H](CNC(=O)c1cc(F)c(-c2cn[nH]c2)nc1NCC(O)c1cccc(F)c1)NC(=O)CNC(=O)OC(C)(C)C` (stereo partly drawn), the IC50 is 14200 nM. On to `C[C@H](CNC(=O)c1cc(F)c(-c2cnn(C)c2)nc1NCCc1cccc(F)c1)NC(=O)CNC(=O)OC(C)(C)C`, for which the IC50 was 1750 nM. The same measure for `C[C@H](CNC(=O)c1cc(F)c(-c2cnn(C)c2)nc1NCCc1cccc(F)c1)NC(=O)CCCNC(=O)OC(C)(C)C`: 100 nM. For the molecule `C[C@H](CNC(=O)c1cc(F)c(-c2cnn(C)c2)nc1NCCc1cccc(F)c1)NC(=O)CN(C)C`, the IC50 came out at 121 nM. Turning to `C[C@H](CNC(=O)c1cc(F)c(-c2cnn(C)c2)nc1NCCc1cccc(F)c1)NC(=O)CCCN`, the IC50 turned out to be 116 nM. On to `C[C@H](CNC(=O)c1cc(F)c(-c2cnn(C)c2)nc1NCCc1cccc(F)c1)NC(=O)[C@@H](N)CO`, for which the IC50 amounted to 115 nM. For `C[C@H](CNC(=O)c1cc(F)c(-c2cnn(C)c2)nc1NCCc1cccc(F)c1)NC(=O)C(C)(C)N`, the IC50 came out at 285 nM.

For `C[C@H](CNC(=O)c1cc(F)c(-c2cnn(C)c2)nc1NCCc1cccc(F)c1)NC(=O)[C@H](C)N`, the IC50 turned out to be 131 nM. Regarding `CC(=O)N[C@H](C)CNC(=O)c1cc(F)c(-c2cnn(C)c2)nc1NCCc1cccc(F)c1`, the IC50 came out at 251 nM. On to `C[C@H](CNC(=O)c1cc(F)c(-c2cnn(C)c2)nc1NCCc1cccc(F)c1)NC(=O)CN`, for which the IC50 was found to be 76 nM.

Turning to `C[C@H](CNC(=O)c1cc(F)c(-c2cn[nH]c2)nc1NCCc1cccc(F)c1)NC(=O)CN`, the IC50 came to 122 nM. The same measure for `C[C@H](CNC(=O)c1cc(F)c(-c2cnn(C)c2)nc1NCCc1cccc(F)c1)NC(=O)[C@H](CO)NC(=O)OC(C)(C)C`: 2260 nM; for `C[C@H](CNC(=O)c1cc(F)c(-c2cnn(C)c2)nc1NCCc1cccc(F)c1)NC(=O)CO`: 197 nM. Take `C[C@H](CNC(=O)c1cc(F)c(-c2cn[nH]c2)nc1NCCn1cccn1)NC(=O)CN`: the IC50 is 4640 nM. Take `C[C@H](CNC(=O)c1ccc(-c2ccccc2C#N)nc1NCCc1cccc(F)c1)NC(=O)CNC(=O)OC(C)(C)C`: the IC50 was 2310 nM. In the case of `C[C@H](CNC(=O)c1ccc(-c2ccccc2C#N)nc1NCCc1cccc(F)c1)N(C)C(=O)CCCNC(=O)OC(C)(C)C`, the IC50 was found to be 3680 nM.

`C[C@H](CNC(=O)c1ccc(-c2ccccc2C#N)nc1NCCc1cccc(F)c1)N(C)C(=O)CCCN`: the concentration for half-maximal inhibition (IC50) was found to be 710 nM. On to `C[C@H](CNC(=O)c1ccc(-c2ccccc2C#N)nc1NCCc1cccc(F)c1)N(C)C(=O)CNC(=O)OC(C)(C)C`, for which the IC50 amounted to 5920 nM. As to `C[C@H](CNC(=O)c1ccc(-c2ccccc2C#N)nc1NCCc1cccc(F)c1)NC(=O)CCCN`, the IC50 was 204 nM. The same measure for `C[C@H](CNC(=O)c1ccc(-c2ccccc2C#N)nc1NCCc1cccc(F)c1)NC(=O)CN`: 41 nM; for `C[C@H](CNC(=O)c1ccc(-c2ccccc2C#N)nc1NCCc1cccc(F)c1)NC(=O)CCCNC(=O)OC(C)(C)C`: 49 nM; for `C[C@H](CNC(=O)c1ccc(-c2ccccc2C#N)nc1NCCc1cccc(F)c1)N(C)C(=O)CN`: 152 nM. As for `C[C@@H](CNC(=O)c1cc(F)c(-c2cnn(C)c2)nc1NCCc1cccc(F)c1)NC(=O)CN`, the IC50 was found to be 1800 nM. Turning to `C[C@@H](CNC(=O)c1ccc(-c2ccccc2C#N)nc1NCCc1cccc(F)c1)N(C)C(=O)CCCN`, the IC50 worked out at 6830 nM.

For the molecule `C[C@@H](CNC(=O)c1ccc(-c2ccccc2C#N)nc1NCCc1cccc(F)c1)NC(=O)CCCNC(=O)OC(C)(C)C`, the IC50 worked out at 2020 nM.

As for `C[C@@H](CNC(=O)c1ccc(-c2ccccc2C#N)nc1NCCc1cccc(F)c1)NC(=O)CN`, the IC50 was determined as 1460 nM. With `C[C@@H](CNC(=O)c1ccc(-c2ccccc2C#N)nc1NCCc1cccc(F)c1)N(C)C(=O)CN`, the IC50 worked out at 3250 nM. For `C[C@@H](CNC(=O)c1ccc(-c2ccccc2C#N)nc1NCCc1cccc(F)c1)NC(=O)CCN`, the IC50 stood at 3560 nM.

For `O=C(NCc1cccnc1Cl)c1ccc(-c2cn[nH]c2)nc1NCCc1cccc(F)c1`, the IC50 was 46 nM. In the case of `N#Cc1ccccc1-c1ccc(C(=O)NC[C@H]2CCCN2CCCN)c(NCCc2cccc(F)c2)n1`, the IC50 was determined as 1390 nM. The same measure for `N#Cc1ccccc1-c1ccc(C(=O)NC[C@H]2CCCN2C(=O)CCCN)c(NCCC2CCOCC2)n1`: 8770 nM; for `N#Cc1ccccc1-c1ccc(C(=O)NC[C@H]2CCCN2C(=O)CCCN)c(NCCC2CCCCO2)n1` (stereo partly drawn): 2040 nM; for `C[N+]1(C)CCC[C@@H]1CNC(=O)c1ccc(-c2ccccc2C#N)nc1NCCc1cccc(F)c1`: 2050 nM. Consider `N#Cc1ccccc1-c1ccc(C(=O)NC[C@H]2O[C@@H](O)[C@H](O)[C@@H](O)[C@@H]2O)c(NCCc2cccc(F)c2)n1`, for which the IC50 amounted to 5540 nM. The same measure for `CC(NC(=O)c1ccc(-c2ccccc2C#N)nc1NCCc1cccc(F)c1)C(N)=O` (stereo not drawn): 564 nM; for `N#Cc1ccccc1CCNc1nc(-c2ccccc2)ccc1C(=O)NCc1cccnc1`: 260 nM; for `O=C(NCc1cccnc1)c1ccc(-c2ccccc2)nc1NCCc1ccc2c(c1)OCO2`: 28300 nM. As for `Cn1cc(-c2ccc(C(=O)NCc3cccnc3)c(NCCc3cccc(F)c3)n2)cn1`, the IC50 was determined as 40 nM.

As to `[N-]=[N+]=NCc1cc(C(=O)NCc2cccnc2)c(NCCc2cccc(F)c2)nc1-c1ccccc1`, the IC50 worked out at 428 nM. As to `CC(C)(C)OC(=O)NCc1cccc(CNC(=O)c2ccc(-c3ccccc3C#N)nc2NCCc2cccc(F)c2)n1`, the IC50 stood at 1190 nM. In the case of `CN1CC(=O)N[C@@H](CNC(=O)c2ccc(-c3ccccc3C#N)nc2NCCc2cccc(F)c2)C1` (stereo in doubt) [(6-(2-cyanophenyl)-2-{[2-(3-fluorophenyl)ethyl]amino}(3-pyridyl))-N-[(4-methyl-6-oxopiperazin-2-yl)methyl]carboxamide], the IC50 came out at 37 nM. With `CS(=O)(=O)N1CC(=O)N[C@@H](CNC(=O)c2ccc(-c3ccccc3C#N)nc2NCCc2cccc(F)c2)C1` (stereo in doubt) [(6-(2-cyanophenyl)-2-{[2-(3-fluorophenyl)ethyl]amino}(3-pyridyl))-N-{[4-(methylsulfonyl)-6-oxopiperazin-2-yl]methyl}carboxamide], the IC50 was 2560 nM.
